Laboratory results published in the supplement of paper PMC10307832.

Tests used:
Assay in all cases: relative viability (nuclei count vs DMSO), 5 days (fraction); higher = more cells survive
Elesclomol + Crizotinib = compound: CN(NC(=O)CC(=O)NN(C)C(=S)c1ccccc1)C(=S)c1ccccc1 [Elesclomol] + C[C@@H](Oc1cc(-c2cnn(C3CCNCC3)c2)cnc1N)c1c(Cl)ccc(F)c1Cl [Crizotinib] (partner 1 µM)
How it was run: (§1)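 One day after seeding in 1536-well plates, lung cancer cell lines were dosed by pin tool. Dosing was either single-drug or a fixed anchor-drug dose plus five library-drug doses (not always all listed) in √10 steps. After 5 days, nuclei were stained in one fix-and-stain step and counted on 4× images, and relative viability is the nuclei count of treated wells over that of vehicle wells, given as the median of duplicate plates.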

Elesclomol + Decitabine = compound: CN(NC(=O)CC(=O)NN(C)C(=S)c1ccccc1)C(=S)c1ccccc1 [Elesclomol] + Nc1ncn([C@H]2C[C@H](O)[C@@H](CO)O2)c(=O)n1 [Decitabine] (partner 2 µM)
How it was run: as §1

Elesclomol + Foretinib = compound: CN(NC(=O)CC(=O)NN(C)C(=S)c1ccccc1)C(=S)c1ccccc1 [Elesclomol] + COc1cc2c(Oc3ccc(NC(=O)C4(C(=O)Nc5ccc(F)cc5)CC4)cc3F)ccnc2cc1OCCCN1CCOCC1 [Foretinib] (partner 0.25 µM)
How it was run: as §1

Elesclomol + Phenformin = compound: CN(NC(=O)CC(=O)NN(C)C(=S)c1ccccc1)C(=S)c1ccccc1 [Elesclomol] + N=C(N)NC(=N)NCCc1ccccc1 [Phenformin] (partner 250 µM)
How it was run: as §1

Elesclomol + Lapatinib = compound: CN(NC(=O)CC(=O)NN(C)C(=S)c1ccccc1)C(=S)c1ccccc1 [Elesclomol] + CS(=O)(=O)CCNCc1ccc(-c2ccc3ncnc(Nc4ccc(OCc5cccc(F)c5)c(Cl)c4)c3c2)o1 [Lapatinib] (partner 2 µM)
How it was run: as §1

Elesclomol + Pictilisib = compound: CN(NC(=O)CC(=O)NN(C)C(=S)c1ccccc1)C(=S)c1ccccc1 [Elesclomol] + CS(=O)(=O)N1CCN(Cc2cc3nc(-c4cccc5[nH]ncc45)nc(N4CCOCC4)c3s2)CC1 [Pictilisib] (partner 1 µM)
How it was run: as §1

Elesclomol + Navitoclax = compound: CN(NC(=O)CC(=O)NN(C)C(=S)c1ccccc1)C(=S)c1ccccc1 [Elesclomol] + CC1(C)CCC(c2ccc(Cl)cc2)=C(CN2CCN(c3ccc(C(=O)NS(=O)(=O)c4ccc(N[C@H](CCN5CCOCC5)CSc5ccccc5)c(S(=O)(=O)C(F)(F)F)c4)cc3)CC2)C1 [Navitoclax] (partner 0.5 µM)
How it was run: as §1

Elesclomol + Linsitinib = compound: CN(NC(=O)CC(=O)NN(C)C(=S)c1ccccc1)C(=S)c1ccccc1 [Elesclomol] + C[C@]1(O)C[C@@H](c2nc(-c3ccc4ccc(-c5ccccc5)nc4c3)c3c(N)nccn32)C1 [Linsitinib] (partner 1 µM)
How it was run: as §1

Elesclomol + Alpelisib = compound: CN(NC(=O)CC(=O)NN(C)C(=S)c1ccccc1)C(=S)c1ccccc1 [Elesclomol] + Cc1nc(NC(=O)N2CCC[C@H]2C(N)=O)sc1-c1ccnc(C(C)(C)C(F)(F)F)c1 [Alpelisib] (partner 2 µM)
How it was run: as §1

Elesclomol + Olaparib = compound: CN(NC(=O)CC(=O)NN(C)C(=S)c1ccccc1)C(=S)c1ccccc1 [Elesclomol] + O=C(c1cc(Cc2n[nH]c(=O)c3ccccc23)ccc1F)N1CCN(C(=O)C2CC2)CC1 [Olaparib] (partner 8 µM)
How it was run: as §1

Elesclomol = compound: CN(NC(=O)CC(=O)NN(C)C(=S)c1ccccc1)C(=S)c1ccccc1 [Elesclomol]
How it was run: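 Vehicle-anchored 1536-well plates of lung cancer cell lines, held overnight at 37 °C, were pinned with five library-drug doses (not always all listed) spaced by √10. No medium change followed over the next 5 days, after which the cells were fixed, permeabilised and Hoechst-stained together and imaged at 4×. Nuclei were counted with MetaXpress, and viability is treated-well nuclei over vehicle-well nuclei, taken as a median across plates. Plates passed with control CV below 25% and at least one doubling.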

Elesclomol + Bortezomib = compound: CN(NC(=O)CC(=O)NN(C)C(=S)c1ccccc1)C(=S)c1ccccc1 [Elesclomol] + CC(C)C[C@H](NC(=O)[C@H](Cc1ccccc1)NC(=O)c1cnccn1)B(O)O [Bortezomib] (partner 0.002 µM)
How it was run: as §1

A549
relative viability (Elesclomol + Crizotinib; first compound 0.003162 µM): 0.445 | relative viability (Elesclomol + Crizotinib; first compound 0.01 µM): 0.239 | relative viability (Elesclomol + Crizotinib; first compound 0.03162 µM): 0.0617 | relative viability (Elesclomol + Crizotinib; first compound 0.1 µM): 0.0458 | relative viability (Elesclomol + Decitabine; first compound 0.003162 µM): 0.293 | relative viability (Elesclomol + Decitabine; first compound 0.01 µM): 0.22 | relative viability (Elesclomol + Decitabine; first compound 0.03162 µM): 0.261 | relative viability (Elesclomol + Decitabine; first compound 0.1 µM): 0.133 | relative viability (Elesclomol + Foretinib; first compound 0.003162 µM): 0.886 | relative viability (Elesclomol + Foretinib; first compound 0.01 µM): 0.504 | relative viability (Elesclomol + Foretinib; first compound 0.03162 µM): 0.0597 | relative viability (Elesclomol + Foretinib; first compound 0.1 µM): 0.0242 | relative viability (Elesclomol + Phenformin; first compound 0.003162 µM): 0.0993 | relative viability (Elesclomol + Phenformin; first compound 0.01 µM): 0.0488 | relative viability (Elesclomol + Phenformin; first compound 0.03162 µM): 0.0406 | relative viability (Elesclomol + Phenformin; first compound 0.1 µM): 0.0078 | relative viability (Elesclomol + Lapatinib; first compound 0.003162 µM): 0.74 | relative viability (Elesclomol + Lapatinib; first compound 0.01 µM): 0.174 | relative viability (Elesclomol + Lapatinib; first compound 0.03162 µM): 0.29 | relative viability (Elesclomol + Lapatinib; first compound 0.1 µM): 0.058 | relative viability (Elesclomol + Pictilisib; first compound 0.003162 µM): 0.493 | relative viability (Elesclomol + Pictilisib; first compound 0.01 µM): 0.246 | relative viability (Elesclomol + Pictilisib; first compound 0.03162 µM): 0.1 | relative viability (Elesclomol + Pictilisib; first compound 0.1 µM): 0.0728 | relative viability (Elesclomol + Navitoclax; first compound 0.003162 µM): 0.798 | relative viability (Elesclomol + Navitoclax; first compound 0.01 µM): 0.181 | relative viability (Elesclomol + Navitoclax; first compound 0.03162 µM): 0.0437 | relative viability (Elesclomol + Navitoclax; first compound 0.1 µM): 0.03 | relative viability (Elesclomol + Linsitinib; first compound 0.003162 µM): 0.627 | relative viability (Elesclomol + Linsitinib; first compound 0.01 µM): 0.501 | relative viability (Elesclomol + Linsitinib; first compound 0.03162 µM): 0.378 | relative viability (Elesclomol + Linsitinib; first compound 0.1 µM): 0.097 | relative viability (Elesclomol + Alpelisib; first compound 0.003162 µM): 0.731 | relative viability (Elesclomol + Alpelisib; first compound 0.01 µM): 0.229 | relative viability (Elesclomol + Alpelisib; first compound 0.03162 µM): 0.0735 | relative viability (Elesclomol + Alpelisib; first compound 0.1 µM): 0.0217 | relative viability (Elesclomol + Olaparib; first compound 0.003162 µM): 0.289 | relative viability (Elesclomol + Olaparib; first compound 0.01 µM): 0.22 | relative viability (Elesclomol + Olaparib; first compound 0.03162 µM): 0.189 | relative viability (Elesclomol + Olaparib; first compound 0.1 µM): 0.0697 | relative viability (Elesclomol; 0.003162 µM): 0.912 | relative viability (Elesclomol; 0.01 µM): 0.417 | relative viability (Elesclomol; 0.03162 µM): 0.24 | relative viability (Elesclomol; 0.1 µM): 0.0637

Calu-6
relative viability (Elesclomol + Crizotinib; first compound 0.003162 µM): 0.501 | relative viability (Elesclomol + Crizotinib; first compound 0.01 µM): 0.222 | relative viability (Elesclomol + Crizotinib; first compound 0.03162 µM): 0.247 | relative viability (Elesclomol + Crizotinib; first compound 0.1 µM): 0.121 | relative viability (Elesclomol + Foretinib; first compound 0.003162 µM): 0.511 | relative viability (Elesclomol + Foretinib; first compound 0.01 µM): 0.15 | relative viability (Elesclomol + Foretinib; first compound 0.03162 µM): 0.0883 | relative viability (Elesclomol + Foretinib; first compound 0.1 µM): 0.0356 | relative viability (Elesclomol + Lapatinib; first compound 0.003162 µM): 0.602 | relative viability (Elesclomol + Lapatinib; first compound 0.01 µM): 0.276 | relative viability (Elesclomol + Lapatinib; first compound 0.03162 µM): 0.3 | relative viability (Elesclomol + Lapatinib; first compound 0.1 µM): 0.12 | relative viability (Elesclomol + Pictilisib; first compound 0.003162 µM): 0.573 | relative viability (Elesclomol + Pictilisib; first compound 0.01 µM): 0.239 | relative viability (Elesclomol + Pictilisib; first compound 0.03162 µM): 0.164 | relative viability (Elesclomol + Pictilisib; first compound 0.1 µM): 0.111 | relative viability (Elesclomol + Navitoclax; first compound 0.003162 µM): 0.476 | relative viability (Elesclomol + Navitoclax; first compound 0.01 µM): 0.166 | relative viability (Elesclomol + Navitoclax; first compound 0.03162 µM): 0.122 | relative viability (Elesclomol + Navitoclax; first compound 0.1 µM): 0.0729 | relative viability (Elesclomol + Linsitinib; first compound 0.003162 µM): 0.737 | relative viability (Elesclomol + Linsitinib; first compound 0.01 µM): 0.223 | relative viability (Elesclomol + Linsitinib; first compound 0.03162 µM): 0.285 | relative viability (Elesclomol + Linsitinib; first compound 0.1 µM): 0.153 | relative viability (Elesclomol + Alpelisib; first compound 0.003162 µM): 0.727 | relative viability (Elesclomol + Alpelisib; first compound 0.01 µM): 0.243 | relative viability (Elesclomol + Alpelisib; first compound 0.03162 µM): 0.229 | relative viability (Elesclomol + Alpelisib; first compound 0.1 µM): 0.127 | relative viability (Elesclomol + Bortezomib; first compound 0.003162 µM): 0.787 | relative viability (Elesclomol + Bortezomib; first compound 0.01 µM): 0.322 | relative viability (Elesclomol + Bortezomib; first compound 0.03162 µM): 0.16 | relative viability (Elesclomol + Bortezomib; first compound 0.1 µM): 0.155 | relative viability (Elesclomol + Olaparib; first compound 0.003162 µM): 0.477 | relative viability (Elesclomol + Olaparib; first compound 0.01 µM): 0.219 | relative viability (Elesclomol + Olaparib; first compound 0.03162 µM): 0.177 | relative viability (Elesclomol + Olaparib; first compound 0.1 µM): 0.121 | relative viability (Elesclomol; 0.003162 µM): 0.768 | relative viability (Elesclomol; 0.01 µM): 0.317 | relative viability (Elesclomol; 0.03162 µM): 0.304 | relative viability (Elesclomol; 0.1 µM): 0.138
